Where a name gives a salt, the structure may show the parent alone.
Assays:
IRAK1/4 human = tested on: T1, IRAK1/4 human; assay: IRAK1/4 phosphorylation IC50 (enzymatic assay, table 2); format: biochemical; conditions: human IRAK1/4 phosphorylation
T1 construct: fused on or other part: His tag and TEV cleavage site at the N-terminus
Outline: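 In 384-well plates, reactions in 50 mM Hepes pH7.0 buffer with MgCl2, DTT, EGTA and BSA combined ATP, compounds in DMSO at 20 µM to 1 nM, and either His-TEV-tagged human IRAK-1 or His-TEV-tagged human IRAK-4 plus STK1-biotin peptide. They ran for 2 or 3 hours alongside 2% DMSO controls. Each value is an IC50 for inhibition.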

[1] = tested on: IL1β-induced IL8 release in THP1 cells; assay: IRAK IL8 secretion functional assay; format: cell-based; conditions: Homo sapiens; THP-1 cells, IL1β 100 ng/ml overnight, IL8 by HTRF; read-out: IC50, Secretion THP-1/IL-β induced IL8 release
Outline: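 THP-1 cells (30,000/well, RPMI 1640) were incubated overnight at 37 °C, 5% CO2 with compound (20 μM to 1 nM) plus IL1β at 100 ng/ml final. IL-8 in the supernatant was measured by HTRF with europium cryptate- and XL665-labelled anti-IL8 antibodies, read after 3 h at 30 °C.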

[2] = tested on: IL-6 secretion in human PBMC; assay: IRAK IL-6 secretion functional assay in human PBMC; format: cell-based; conditions: preincubated 1 h with test article, stimulated with 10 ng/ml IL1, 18-20 h, ELISA
Method: IRAK IL-6 Secretion Functional Assay in Human PBMC
Human PBMCs from healthy volunteers were purified from buffy coats of heparinized whole blood by density centrifugation on Ficoll-Hypaque. Isolated PBMCs were washed twice in PBS, counted, and seeded at a density of 7×10^4 cells/well in 180 µl of complete RPMI 1640 medium containing 10% heat-inactivated FBS. PBMC were preincubated for 1 h with serial dilutions of test article dissolved in DMSO (final DMSO concentration 0.33%) at 37° C. in a 5% CO2 incubator. PBMC were then stimulated with 10 ng/ml of IL1-(final volume […]) and incubation was continued for 18-20 h. The supernatants were collected and IL-6 was quantified using the Duo-set ELISA kit (R&D Systems) following manufacturer's instructions

| Structure (SMILES) | IC50 (IRAK1/4 human) [nM] | IC50 [1] [nM] | IC50 [2] [nM] |
| --- | --- | --- | --- |
| COCCC1CCCN(C(=O)c2ccc(-n3cc(-c4n[nH]c5ccccc45)nn3)cc2)C1 (stereo not drawn) [Example 113] | 100 to 1000 | 100 to 1000 | – |
| O=C(c1ccc(-n2cc(-c3n[nH]c4ccccc34)nn2)cc1)N1CC(O)C1 [Example 114, 1-{4-[4-(1H-indazol-3-yl)-1H-1,2,3-triazol-1-yl]benzoyl}azetidin-3-ol] | 100 to 1000 | 100 to 1000 | – |
| Cc1nccn1CC1CCCN(C(=O)c2ccc(-n3cc(-c4n[nH]c5ccccc45)nn3)cc2)C1 (stereo not drawn) [Example 115, 3-{1-[4-({3-[(2-methyl-1H-imidazol-1-yl)methyl]piperidin-1-yl}carbonyl)phenyl]-1H-1,2,3-triazol-4-yl}-1H-indazole] | 100 to 1000 | 100 to 1000 | – |
| O=C(c1ccc(-n2cc(-c3n[nH]c4ccccc34)nn2)cc1)N1CCCCC1CCO (stereo not drawn) [Example 117, 2-(1-{4-[4-(1H-indazol-3-yl)-1H-1,2,3-triazol-1-yl]benzoyl}piperidin-2-yl)ethanol] | 100 to 1000 | 100 to 1000 | – |
| COCC1CCCN(C(=O)c2ccc(-n3cc(-c4n[nH]c5ccccc45)nn3)cc2)C1 (stereo not drawn) [Example 118, 3-[1-(4-{[3-(methoxymethyl)piperidin-1-yl]carbonyl}phenyl)-1H-1,2,3-triazol-4-yl]-1H-indazole] | 100 to 1000 | 100 to 1000 | – |
| O=C(c1ccc(-n2cc(-c3n[nH]c4ccccc34)nn2)cc1)N1CCC(N2CCCC2)CC1 [Example 120, 3-(1-{4-[(4-pyrrolidin-1-ylpiperidin-1-yl)carbonyl]phenyl}-1H-1,2,3-triazol-4-yl)-1H-indazole] | 100 to 1000 | 100 to 1000 | – |
| O=C(Nc1cnn(C2CCNCC2)c1)c1ccc(-n2cc(-c3n[nH]c4ccccc34)nn2)cc1 [Example 128, 4-[4-(1H-indazol-3-yl)-1H-1,2,3-triazol-1-yl]-N-(1-piperidin-4-yl-1H-pyrazol-4-yl)benzamide hydrochloride] | 100 to 1000 | 1000 to 5000 | – |
| O=C(Nc1cnn(C2CCCNCC2)c1)c1ccc(-n2cc(-c3n[nH]c4ccccc34)nn2)cc1 (stereo not drawn) [Example 129, N-(1-azepan-4-yl-1H-pyrazol-4-yl)-4-[4-(1H-indazol-3-yl)-1H-1,2,3-triazol-1-yl]benzamide hydrochloride] | 100 to 1000 | 1000 to 5000 | – |
| c1ccc2c(-c3cn(-c4ccc(C5CCNCC5)cc4)nn3)n[nH]c2c1 [Example 132, 3-[1-(4-piperidin-4-ylphenyl)-1H-1,2,3-triazol-4-yl]-1H-indazole hydrochloride] | 100 to 1000 | – | 200 to 2000 |
| c1ccc2c(-c3cn(-c4ccc(CN5C[C@@H]6C[C@H]5CO6)cc4)nn3)n[nH]c2c1 [Example 145, 3-(1-{4[(1S,4S)-2-oxa-5-azabicyclo[2.2.1]hept-5-ylmethyl]phenyl}-1H-1,2,3-triazol-4-yl)-1H-indazole] | 100 to 1000 | – | 200 to 2000 |
| CN(C)C1CCN(C(=O)c2ccc(-n3cc(-c4n[nH]c5ccc(F)cc45)nn3)cc2)CC1 [Example 158] | – | – | < 200 |
| c1ccc2c(-c3cn(-c4ccc(CN5CCOCC5)cc4)nn3)n[nH]c2c1 [Example 188] | 100 to 1000 | – | 200 to 2000 |
| O=C(c1ccc(-n2cc(-c3n[nH]c4cc(-c5cccnc5)ccc34)nn2)cc1)N1CCOCC1 [Example 210] | 100 to 1000 | – | 200 to 2000 |
| Cc1ccc2c(-c3cn(-c4cnn(C5CC6CCC(C5)N6C)c4)nn3)n[nH]c2c1 (stereo not drawn) [Example 224] | < 100 | – | 200 to 2000 |
| CN1[C@@H]2CC[C@H]1C[C@@H](c1ccc(-n3cc(-c4n[nH]c5ccccc45)nn3)cc1)C2 [Example 251] | 100 to 1000 | – | 200 to 2000 |
| Cc1ccc2c(-c3cn(-c4ccc(C5CCN(C6CCOCC6)CC5)cc4)nn3)n[nH]c2c1 [Example 298] | 100 to 1000 | – | 200 to 2000 |

The next lines start with results.

| IC50 (IRAK1/4 human) [nM] | IC50 [1] [nM] | Structure (SMILES) | IC50 [2] [nM] |
| --- | --- | --- | --- |
| < 100 | 100 to 1000 | COC[C@@H]1CCCN1C(=O)c1ccc(-n2cc(-c3n[nH]c4ccccc34)nn2)cc1 [Example 108, 3-[1-(4-{[(2S)-2-(methoxymethyl)pyrrolidin-1-yl]carbonyl}phenyl)-1H-1,2,3-triazol-4-yl]-1H-indazole] | – |
| 100 to 1000 | 100 to 1000 | COC1CCN(C(=O)c2ccc(-n3cc(-c4n[nH]c5ccccc45)nn3)cc2)CC1 [Example 109, 3-(1-{4-[(4-methoxypiperidin-1-yl)carbonyl]phenyl}-1H-1,2,3-triazol-4-yl)-1H-indazole] | – |
| 100 to 1000 | 1000 to 5000 | Cc1ccc(=O)n(Cc2ccc3[nH]nc(-c4cn(-c5ccc(C(=O)N6CCOCC6)cc5)nn4)c3c2)n1 [Example 110] | – |
| 100 to 1000 | 100 to 1000 | O=C(Nc1cnn(CCN2CCOCC2)c1)c1ccc(-n2cc(-c3n[nH]c4ccccc34)nn2)cc1 [Example 111, 4-[4-(1H-indazol-3-yl)-1H-1,2,3-triazol-1-yl]-N-[1-(2-morpholin-4-ylethyl)-1H-pyrazol-4-yl]benzamide] | – |
| < 100 | 100 to 1000 | CN1CCC(n2cc(NC(=O)c3ccc(-n4cc(-c5n[nH]c6ccccc56)nn4)cc3)cn2)C1 (stereo not drawn) [Example 112, 4-[4-(1H-indazol-3-yl)-1H-1,2,3-triazol-1-yl]-N-[1-(1-methylpyrrolidin-3-yl)-1H-pyrazol-4-yl]benzamide] | – |
| < 100 | 100 to 1000 | O=C(c1ccc(-n2cc(-c3n[nH]c4ccc(C5CCN(CCF)CC5)cc34)nn2)cc1)N1CCOCC1 [Example 121, 5-[1-(2-fluoroethyl)piperidin-4-yl]-3-{1-[4-(morpholin-4-ylcarbonyl)phenyl]-1H-1,2,3-triazol-4-yl}-1H-indazole] | – |
| < 100 | < 100 | Cn1cc(-c2ccc3[nH]nc(-c4cn(-c5ccc(C(=O)N6CCOCC6)cc5)nn4)c3c2)cn1 [Example 123, 5-(1-methyl-1H-pyrazol-4-yl)-3-{1-[4-(morpholin-4-ylcarbonyl)phenyl]-1H-1,2,3-triazol-4-yl}-1H-indazole] | – |
| < 100 | 100 to 1000 | O=C(c1ccc(-n2cc(-c3n[nH]c4ccccc34)nn2)cc1)N1CCCC(Cn2ccnc2)C1 (stereo not drawn) [Example 126, 3-[1-(4-{[3-(1H-imidazol-1-ylmethyl)piperidin-1-yl]carbonyl}phenyl)-1H-1,2,3-triazol-4-yl]-1H-indazole] | – |
| < 100 | 100 to 1000 | COC1CCCN(C(=O)c2ccc(-n3cc(-c4n[nH]c5ccccc45)nn3)cc2)C1 (stereo not drawn) [Example 127] | – |
| < 100 | – | Cc1ccc2c(-c3cn(-c4ccc(C5CCN(CC(O)C(F)(F)F)CC5)cc4)nn3)n[nH]c2c1 (stereo not drawn) [Example 136, 1,1,1-trifluoro-3-(4-{4-[4-(6-methyl-1H-indazol-3-yl)-1H-1,2,3-triazol-1-yl]phenyl}piperidin-1-yl)propan-2-ol] | 200 to 2000 |
| < 100 | – | O=c1ccc(-c2cccnc2)nn1Cc1ccc2[nH]nc(-c3cn(-c4ccc(CN5CCOCC5)cc4)nn3)c2c1 [Example 197] | < 200 |
| < 100 | – | O=C(c1ccc(-n2cc(-c3n[nH]c4ccc(C5CCCNC5)cc34)nn2)cc1)N1CCOCC1 (stereo not drawn) [Example 204] | 200 to 2000 |
| < 100 | – | O=C(NC1CCCNC1)c1ccc2[nH]nc(-c3cn(-c4ccc(CN5CCOCC5)cc4)nn3)c2c1 (stereo not drawn) [Example 238] | < 200 |

From patent US9073892B2, “Indazolyl triazol derivatives” (Merck Serono S.A., priority 2010, dated 2015)
